Our source for the IC50 values is patent US11976075B2, “Inhibitors of the MYST family of lysine acetyl transferases” (Isosterix, Inc., priority 2022, dated 2024).

Where two headings read alike, the source gives them in different places. Where only a bound is given, the exact number is not on record here.

The target of the assay is T1, Recombinant KAT6A/MOZ (488-778) protein (Homo sapiens, UniProt Q92794).
T1 construct: Recombinant KAT6A/MOZ (488-778) protein (Active motif, Catalog #81223); purchased Active Motif 81223
Briefly: Kat6a AlphaLISA Inhibition Screening Assay. In kind it is biochemical. The protocol: The Kat6a inhibitory activity of test compounds was determined using an Alpha Screen-based detection method. The assay reactions were conducted in a volume of 10 μL in Alpha Plate, White 384 well plate (cat #6008280, Perkin Elmer). The enzymatic reactions were performed in assay buffer pH 8.0 (50 mM Tris-HCl, 0.1 mM EDTA, 0.01% Tween-20, 1 mM Dithiothreitol, 0.1% BSA (fatty acid free) and 330 nM TSA (Trichostatin A)). 10 μL reaction volume consisting of 25 nM of Recombinant KAT6A/MOZ (488-778) protein (Active motif, Catalog #81223), 400 nM Acetyl coenzyme A (Catalog #A2056, Sigma), 200 nM of Histone H3 peptide [(amino acids 1-21), biotin-labeled (BPS Biosciences, Catalog #52011,)] and a 10-point dose response curve for test/tool compounds were prepared. Enzyme and compounds solution were pre-incubated in assay plate for 60 or 10 min at room temperature then substrate and Acetyl coenzyme A solution were added to the plate. After addition, the plate was sealed with adhesive seals and incubated for 120 minutes at room temperature.
After 120 minutes of incubation, 5 μL (10 μg/mL) of AlphaLISA anti-acetyl-Lysine acceptor beads (Perkin Elmer, Catalog #AL143C) were added to the plate and it was incubated for 60 minutes at room temperature. Then 10 μL (10 μg/mL) of Alpha Streptavidin donor beads (Perkin Elmer, Catalog #6760002S) were added to the plate which was further incubated for 60 minutes at room temperature. After incubation, the alpha signal was recorded by using Perkin Elmer Envision multi-mode reader.
NA means the compound was not active at the concentration tested. […] NT means not tested.
In general terms: In Alpha technology, singlet oxygen from a donor bead excites a nearby acceptor bead.

Where [1] appears, read: 10′ pre-incubation, Table 2, read-out: Kat6A biochemical assay: IC50.
Where [2] appears, read: 60′ pre-incubation, Table 2, read-out: Kat6A biochemical assay: IC50.
Where [3] appears, read: 60′ pre-incubation, Table 3, read-out: Kat6A Biochemical assay: IC50.

T1 sequence (Q92794 488-778): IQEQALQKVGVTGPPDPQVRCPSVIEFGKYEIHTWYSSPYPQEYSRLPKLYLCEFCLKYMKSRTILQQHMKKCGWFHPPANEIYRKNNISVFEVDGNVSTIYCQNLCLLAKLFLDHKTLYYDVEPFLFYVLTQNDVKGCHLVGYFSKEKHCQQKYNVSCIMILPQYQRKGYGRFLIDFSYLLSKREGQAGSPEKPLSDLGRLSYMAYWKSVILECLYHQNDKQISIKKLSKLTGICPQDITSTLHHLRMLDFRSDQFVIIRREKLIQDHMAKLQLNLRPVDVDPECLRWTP

As usually defined, the IC50 is the midpoint of a concentration-inhibition curve. As to `C=CC(=O)NCc1ccnc(-c2cc(C)cc(C(=O)NNS(=O)(=O)c3ccccc3F)c2)c1` [compound 12], the IC50 under setting [1] was at most 10 µM. The same measure, in the same setting: then `C#CC(=O)NCc1ccnc(-c2cc(C)cc(C(=O)NNS(=O)(=O)c3ccccc3F)c2)c1` [compound 13], with at most 10 µM. As to `C#CC(=O)NCc1cnn(Cc2cc(OC)c3c(NS(=O)(=O)c4ccccc4C(=O)NC)noc3c2)c1` [compound 68, 2-(N-(4-methoxy-6-((4-(propiolamidomethyl)-1H-pyrazol-1-yl)methyl)benzo[d]isoxazol-3-yl)sulfamoyl)-N-methylbenzamide], the 50% inhibitory concentration (IC50) under setting [2] is at most 10 µM. Turning to `C#CC(=O)NCc1cnn(Cc2cc(OC)c3c(NS(=O)(=O)c4cc(CC)ccc4OC)noc3c2)c1` [compound 69, N-((1-((3-((5-ethyl-2-methoxyphenyl)sulfonamido)-4-methoxybenzo[d]isoxazol-6-yl)methyl)-1H-pyrazol-4-yl)methyl) propiolamide], the IC50 under setting [2] was at most 10 µM. The same measure, in the same setting: the result for `COc1ccccc1S(=O)(=O)Nc1noc2cc(Cn3cc(CNS(=O)(=O)c4c(F)c(F)c(F)c(F)c4F)cn3)cc(OC)c12` [compound 70, 2,3,4,5,6-pentafluoro-N-((1-((4-methoxy-3-((2-methoxyphenyl)sulfonamido)benzo[d]isoxazol-6-yl)methyl)-1H-pyrazol-4-yl)methyl)benzenesulfonamide] reads at most 10 µM; that for `C#CC(=O)N1CCN(c2cccc(-c3cc(OC)c4c(NS(=O)(=O)c5c(OC)cccc5OC)noc4c3)c2)CC1` [compound 71, 2,6-dimethoxy-N-(4-methoxy-6-(3-(4-propioloylpiperazin-1-yl)phenyl)benzo[d]isoxazol-3-yl) benzenesulfonamide], at most 10 µM. Regarding `C=CS(=O)(=O)N1CCN(c2cccc(-c3cc(OC)c4c(NS(=O)(=O)c5c(OC)cccc5OC)noc4c3)c2)CC1` [compound 72, 2,6-dimethoxy-N-(4-methoxy-6-(3-(4-(vinylsulfonyl)piperazin-1-yl)phenyl)benzo[d]isoxazol-3-yl) benzenesulfonamide], the concentration for half-maximal inhibition (IC50) under setting [3] was at most 10 µM. Consider `COc1cccc(OC)c1S(=O)(=O)Nc1noc2cc(-c3cccc(N4CCN(C(=O)CCl)CC4)c3)cc(OC)c12` [compound 73, N-(6-(3-(4-(2-chloroacetyl)piperazin-1-yl)phenyl)-4-methoxybenzo[d]isoxazol-3-yl)-2,6-dimethoxybenzenesulfonamide], for which the concentration for half-maximal inhibition (IC50) under setting [3] was at most 10 µM.

In the case of `C#CC(=O)N1CCN(c2cccc(-c3cc(OC)c4c(NS(=O)(=O)c5ccccc5OC)noc4c3)c2)CC1` [compound 74, 2-methoxy-N-(4-methoxy-6-(3-(4-propioloylpiperazin-1-yl)phenyl)benzo[d]isoxazol-3-yl)benzenesulfonamide], the IC50 under setting [3] is at most 10 µM.

`C=CC(=O)N1CCC(c2ccccc2-c2cc(OC)c3c(NS(=O)(=O)c4c(OC)cccc4OC)noc3c2)C1` (stereo not drawn) [compound 75, N-(6-(2-(1-acryloylpyrrolidin-3-yl)phenyl)-4-methoxybenzo[d]isoxazol-3-yl)-2,6-dimethoxybenzenesulfonamide]: the IC50 under setting [3] is over 10 µM. The same measure, in the same setting: then `C#CC(=O)NCc1cnn(Cc2cc(OC)c3c(NS(=O)(=O)c4ccccc4OC)n[nH]c3c2)c1` [compound 76, N-((1-((4-methoxy-3-((2-methoxyphenyl)sulfonamido)-1H-indazol-6-yl)methyl)-1H-pyrazol-4-yl)methyl)propiolamide], with at most 10 µM. Turning to `C=CS(=O)(=O)NC1CCN(Cc2cc(OC)c3c(NS(=O)(=O)c4ccccc4OC)noc3c2)CC1` [compound 77, 2-methoxy-N-(4-methoxy-6-((4-(vinylsulfonamido)piperidin-1-yl)methyl)benzo[d]isoxazol-3-yl)benzenesulfonamide], under setting [3], the 50% inhibitory concentration (IC50) was at most 10 µM. As for `COc1ccccc1S(=O)(=O)Nc1noc2cc(Cn3cc(CNS(=O)(=O)c4ccc(F)cc4)cn3)cc(OC)c12` [compound 78, N-(6-((4-(((4-fluorophenyl)sulfonamido)methyl)-1H-pyrazol-1-yl)methyl)-4-methoxybenzo[d]isoxazol-3-yl)-2-methoxybenzenesulfonamide], under setting [3], the IC50 is at most 10 µM. Same read-out and setting: then `COc1ccccc1S(=O)(=O)Nc1noc2cc(Cn3cc(CNS(=O)(=O)c4ccccc4)cn3)cc(OC)c12` [compound 79, 2-methoxy-N-(4-methoxy-6-((4-(phenylsulfonamidomethyl)-1H-pyrazol-1-yl)methyl)benzo[d]isoxazol-3-yl)benzenesulfonamide], with at most 10 µM; and `COc1ccccc1S(=O)(=O)Nc1noc2cc(Cn3cc(CNS(=O)(=O)c4cc(F)c(F)c(F)c4)cn3)cc(OC)c12` [compound 80, 3,4,5-trifluoro-N-((1-((4-methoxy-3-((2-methoxyphenyl)sulfonamido)benzo[d]isozolol-6-yl)methyl)-1H-pyrazol-4-yl)methyl) benzenesulfonamide], with at most 10 µM.

On to `C=CS(=O)(=O)NCc1cnn(Cc2cc(OC)c3c(NS(=O)(=O)c4cc(CC)ccc4OC)noc3c2)c1` [compound 81, 5-ethyl-2-methoxy-N-(4-methoxy-6-((4-(vinylsulfonamidomethyl)-1H-pyrazol-1-yl)methyl)benzo[d]isoxazol-3-yl)benzenesulfonamide], for which the concentration for half-maximal inhibition (IC50) under setting [3] was at most 10 µM.

`COc1ccccc1S(=O)(=O)Nc1noc2cc(Cn3ncc4c3CN(S(=O)(=O)c3c(F)c(F)c(F)c(F)c3F)C4)cc(OC)c12` [compound 82]: the IC50 under setting [3] is at most 10 µM. With `COc1ccccc1S(=O)(=O)Nc1noc2cc(Cn3cc(CNS(=O)(=O)c4ccc(Cl)nc4)cn3)cc(OC)c12` [compound 83, 6-chloro-N-((1-((4-methoxy-3-((2-methoxyphenyl)sulfonamido)benzo[d]isoxazol-6-yl)methyl)-1H-pyrazol-4-yl)methyl)pyridine-3-sulfonamide], the IC50 under setting [3] is at most 10 µM. `COc1ccccc1S(=O)(=O)Nc1noc2cc(Cn3cc(CNS(=O)(=O)c4cccnc4Cl)cn3)cc(OC)c12` [compound 84, 2-chloro-N-((1((4methoxy3((2methoxyphenyl)sulfonamido)benzo[d]isoxazol-6-yl)methyl)-1H-pyrazol-4-yl)methyl) pyridine-3-sulfonamide]: the 50% inhibitory concentration (IC50) under setting [3] was at most 10 µM.

`C#CC(=O)NCc1cnn(Cc2cc(OC)c3c(NS(=O)(=O)c4cc(C(=O)NC)ccc4OC)noc3c2)c1` [compound 85, 4-methoxy-3-(N-(4-methoxy-6-((4-(propiolamidomethyl)-1H-pyrazol-1-yl)methyl)benzo[d]isoxazol-3-yl)sulfamoyl)-N-methylbenzamide]: the half-inhibitory concentration (IC50) under setting [3] is at most 10 µM.

For the compound `C#CC(=O)NCc1cnn(Cc2cc(OC)c3c(NS(=O)(=O)c4cc(C(=O)O)ccc4OC)noc3c2)c1` [compound 86, 4-methoxy-3-(N-(4-methoxy-6-((4-(propiolamidomethyl)-1H-pyrazol-1-yl)methyl)benzo[d]isoxazol-3-yl)sulfamoyl)benzoic acid], the IC50 under setting [3] is over 10 µM.

Take `C#CC(=O)N1CCC(c2cccc(-c3cc(OC)c4c(NS(=O)(=O)c5c(OC)cccc5OC)noc4c3)c2)C1` (stereo not drawn) [compound 87, 2,6-dimethoxy-N-(4-methoxy-6-(3-(1-propioloylpyrrolidin-3-yl)phenyl)benzo[d]isoxazol-3-yl)benzenesulfonamide]: the half-inhibitory concentration (IC50) under setting [3] is at most 10 µM.

With `C#CC(=O)NCCOCc1cc(OC)c2c(NS(=O)(=O)c3cc(CC)ccc3OC)noc2c1` [compound 88, N-(2-((3-((5-ethyl-2-methoxyphenyl)sulfonamido)-4-methoxybenzo[d]isoxazol-6-yl)methoxy)ethyl)propiolamide], the IC50 under setting [3] is at most 10 µM.

On to `C#CC(=O)NCCCOCc1cc(OC)c2c(NS(=O)(=O)c3cc(CC)ccc3OC)noc2c1` [compound 89, N-(3-((3-((5-ethyl-2-methoxyphenyl)sulfonamido)-4-methoxybenzo[d]isoxazol-6-yl)methoxy)propyl) propiolamide], for which the IC50 under setting [3] was at most 10 µM.

For `C=CS(=O)(=O)NCCCOCc1cc(OC)c2c(NS(=O)(=O)c3cc(CC)ccc3OC)noc2c1` [compound 90, 5-ethyl-2-methoxy-N-(4-methoxy-6-((3-(vinylsulfonamido)propoxy)methyl)benzo[d]isoxazol-3-yl)benzenesulfonamide], the IC50 under setting [3] is at most 10 µM. For `C#CC(=O)NCc1cnn(-c2cc(C)nc(C(=O)NNS(=O)(=O)c3ccccc3F)c2)c1` [compound 91, N-((1-(2-(2-((2-fluorophenyl)sulfonyl) hydrazine-1-carbonyl)-6-methylpyridin-4-yl)-1H-pyrazol-4-yl)methyl) propiolamide], the concentration for half-maximal inhibition (IC50) under setting [3] was at most 10 µM. With `C#CC(=O)N1CCC(c2ccnc(-c3cc(C)cc(C(=O)NNS(=O)(=O)c4ccccc4F)c3)c2)C1` (stereo not drawn) [compound 92, 2-fluoro-N′-(3-methyl-5-(4-(1-propioloylpyrrolidin-3-yl)pyridin-2-yl)benzoyl)benzenesulfonohydrazide], the IC50 under setting [3] was at most 10 µM.
